Data: patent US20050208163A1, “Compositions containing avocado leaf extract for lowering cholesterol levels” (priority 2002, published 2005)

Test system: Hep G2 hepatoma cells
Assay: Drymifolia leaf extract bioassay: cholesterol secretion by hepatoma cells (AMPLEX RED cholesterol kit)
Assay type: cell-based
Details: for activity at 25 µg/mL: HepG2, Conc. 25 μg/ml
Method: To measure cholesterol secretion by hepatoma cells following treatment by drymifolia leaf extract prepared in accordance with the present invention, a bioassay was performed. Samples for the bioassay were prepared by weighing out 100 mg of the spray dried powders of drymifolia leaf extracts. A 50 mg/ml total extract of the sample was then prepared by sequential addition of DMSO:ethanol:water in a ratio of 5:3:2. For example, for 100 mg of powder, 1 ml DMSO, 0.6 ml ethanol, and 0.4 ml water would be used. To prepare dilutions of sample for testing, the samples were diluted from the stock concentration of 50 mg/ml to test concentrations (i.e. 400, 200, 100 μg/ml) in tissue culture media. For the 400 μg/ml concentration, 8 μl of stock solution added to 992 μl tissue culture media would yield 400 μg/ml. From there, serial two fold dilutions would result in the remaining test concentration. Hep G2 hepatoma cells (ATCC, Manassas, Va.) were plated at 2×10^5/well in standard 24 well tissue culture plates. Following plating, the cells were incubated overnight. The next day, the media in the wells was aspirated and replaced with fresh media containing the diluted sample. Stock solutions of the samples were prepared as total extracts at 50 mg/ml. The samples were then diluted in tissue culture media just prior to adding to the cells. The cells were again incubated overnight with the samples. Then, the supernatant fluids were tested for the presence of cholesterol using the AMPLEX RED cholesterol kit (Molecular Probes, Eugene, Oreg.). The kit measures total cholesterol in the supernatants following enzymatic conversion of any cholesterol esters to free cholesterol using cholesterol esterase. The effect of the samples is calculated by dividing the mean relative fluorescence derived from the test samples by the mean relative fluorescence of untreated controls.
LIPITOR® and pure rutin samples were prepared in the same manner as the drymifolia leaf extract in the bioassay. The drymifolia leaf extract samples performed as well as or better than LIPITOR®. […] Pure rutin in the amount equivalent to the amount found in the lots 3193, 3194, 3811, and 3831 was tested. More specifically, the amount of rutin found in the lots was 3.44 mg/g, 4.36 mg/g, 4.42 mg/g and 4.13 mg/g, respectively. At the highest concentration of the drymifolia leaf extract samples tested (which was 400 ug/ml), there could be up to 25 ug/ml of rutin. Thus, the amount of pure rutin used in the bioassay was 3.125 to 25 ug/ml. […]

[1] = Homo sapiens, read-out: % ctrl (cholesterol release)

Structure (SMILES)	Mean (relative fluorescence, cholesterol release) (Conc. 25 μg/ml)	Mean (relative fluorescence, cholesterol release) (Conc. 50 μg/ml)	Mean (relative fluorescence, cholesterol release) (Conc. 100 μg/ml)	Mean (relative fluorescence, cholesterol release) (Conc. 200 μg/ml)	activity at 25 µg/mL [1] [%]	activity at 50 µg/mL (Homo sapiens, HepG2, Conc. 50 μg/ml, read-out: % ctrl (cholesterol release)) [%]	activity at 100 µg/mL (Homo sapiens, HepG2, Conc. 100 μg/ml, read-out: % ctrl (cholesterol release)) [%]	activity at 200 µg/mL (Homo sapiens, HepG2, Conc. 200 μg/ml, read-out: % ctrl (cholesterol release)) [%]	Mean (relative fluorescence, cholesterol release) (Conc. 3.125 μg/ml)	Mean (relative fluorescence, cholesterol release) (Conc. 6.25 μg/ml)	Mean (relative fluorescence, cholesterol release) (Conc. 12.5 μg/ml)	activity at 3.125 µg/mL (Homo sapiens, HepG2, Conc. 3.125 μg/ml, read-out: % ctrl (cholesterol release)) [%]	activity at 6.25 µg/mL (Homo sapiens, HepG2, Conc. 6.25 μg/ml, read-out: % ctrl (cholesterol release)) [%]	activity at 12.5 µg/mL (Homo sapiens, HepG2, Conc. 12.5 μg/ml, read-out: % ctrl (cholesterol release)) [%]
CC(C)c1c(C(=O)Nc2ccccc2)c(-c2ccccc2)c(-c2ccc(F)cc2)n1CC[C@@H](O)C[C@@H](O)CC(=O)O [LIPITOR ®, atorvastatin]	18308.5	18591	16871.5	16378	99.2	101	91.5	88.8	–	–	–	–	–	–
C[C@@H]1O[C@@H](OC[C@H]2O[C@@H](Oc3c(-c4ccc(O)c(O)c4)oc4cc(O)cc(O)c4c3=O)[C@H](O)[C@@H](O)[C@@H]2O)[C@H](O)[C@H](O)[C@H]1O [Pure Rutin, rutin]	16817.5	–	–	–	91.2	–	–	–	18609.5	19069	17835	101	103	96.7
